In patent US20190327974A1, “SYNERGISTS FOR IMPROVED PESTICIDES” (priority 2017, published 2019):
Like-named read-outs stand apart in the source and are kept apart here.

Legend:
[1] = molecular target: T1, wild-type LcαE7 (αE7 carboxylesterase) (Lucilia cuprina, UniProt Q25252); experiment: Inhibition of wildtype αE7 (competition assay, hydrolysis of 4-nitrophenol butyrate), dose-response curves of FIG. 7; type: biochemical; conditions: 95% confidence interval in brackets; recombinant His6-tagged enzyme from E. coli, 0.5 nM; 4-nitrophenol butyrate 15 μM (= KM); room temperature, pH 7.5, 405 nm; three technical replicates
T1 sequence (Q25252 1-570): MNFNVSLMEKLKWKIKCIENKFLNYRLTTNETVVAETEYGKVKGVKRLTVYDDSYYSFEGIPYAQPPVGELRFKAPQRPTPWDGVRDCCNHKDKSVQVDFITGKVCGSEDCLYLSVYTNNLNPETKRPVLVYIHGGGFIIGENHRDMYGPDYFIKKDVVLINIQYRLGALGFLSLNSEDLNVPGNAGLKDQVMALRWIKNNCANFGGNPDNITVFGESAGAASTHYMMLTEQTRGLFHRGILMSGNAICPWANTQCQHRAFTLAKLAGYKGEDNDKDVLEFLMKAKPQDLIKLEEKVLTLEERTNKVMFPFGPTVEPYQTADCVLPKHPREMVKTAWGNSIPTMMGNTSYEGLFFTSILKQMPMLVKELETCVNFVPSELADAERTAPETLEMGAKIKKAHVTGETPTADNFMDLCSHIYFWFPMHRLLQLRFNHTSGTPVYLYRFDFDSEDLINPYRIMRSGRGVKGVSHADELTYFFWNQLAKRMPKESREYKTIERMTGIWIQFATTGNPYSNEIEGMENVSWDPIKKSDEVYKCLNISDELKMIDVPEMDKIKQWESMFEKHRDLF
Description: FIG. 7 presents dose-response curves for the inhibition of wildtype αE7. Inhibition of the hydrolysis of […] was determined for phenylboronic acid (PBA) and compounds 1-5 and 3.1-3.12. Three (technical) replicate measurements of enzyme activity were performed for each concentration of boronic acid. The concentration of boronic acid required to inhibit 50% of activity (IC50) was determined by fitting a sigmoidal sigmoidal dose-response curve to plots of percentage inhibition. The curve was constrained to 0 (bottom) and 100% (top) inhibition with a variable Hill slope. […]
(§1) Wild-type LcαE7 was heterologously expressed in Escherichia coli and purified using metal ion affinity and size exclusion chromatography. The potency of the boronic acids was determined by enzymatic assays of recombinant LcαE7 with the model carboxylester substrate 4-nitrophenol butyrate.
His6-tagged proteins were expressed in BL21(DE3) E. coli (Invitrogen) at 26° C. for 18 hours. Cells were collected by centrifugation, resuspended in lysis buffer (300 mM NaCl, 10 mM imidazole, 50 mM HEPES pH 7.5) and lysed by sonication. Cell debris was pelleted by centrifugation and the soluble fraction was loaded onto a HisTrap-HP Ni-Sepharose column (GE Healthcare). Bound protein was eluted with lysis buffer supplemented with 300 mM imidazole. Fractions containing the eluted protein were concentrated with a 30 kDa molecular mass cutoff centrifuge concentrator (Amicon) and loaded onto a HiLoad 26/60 Superdex-200 size-exclusion column (GE Healthcare) pre-equilibrated with 150 mM NaCl, 20 mM HEPES pH 7.5. Eluted fractions containing the monomeric protein were pooled for enzyme inhibition assays or crystallization. Protein concentration was determined by measuring the absorbance at 280 nm with an extinction coefficient calculated using the Protparam online server (Gasteiger, E. et al. Protein identification and analysis tools on the ExPASy server. Proteomics Protoc. Handb. 571-607 (2005). doi:10.1385/1-59259-890-0:571).
(§2) Inhibition of wild-type αE7 and the Gly137Asp αE7 variant was determined by a competition assay between the native-substrate analogue 4-nitrophenol butyrate (Sigma) and the boronic acid compounds. Initially, the Michalis constant (KM) with 4-nitrophenol butyrate was measured for both enzymes to determine an appropriate concentration of substrate for use in the competition assays. Formation of the 4-nitrophenolate product of hydrolysis was monitored at 405 nm in the presence of enzyme and eight different concentrations of substrate. 4-nitrophenol butyrate was prepared in methanol to 100 mM and serially diluted 1-in-2 to achieve concentrations from 100 mM to 0.8 mM. Enzyme stocks were prepared in 4 mg/ml bovine serum albumin (Sigma) to maintain enzyme stability. Reactions were prepared by pipetting 178 μl assay buffer (100 mM NaCl, 20 mM HEPES pH 7.5) and 2 μl substrate (final concentrations of 1000 to 8 μM) into 300 μl wells of a 96-well plate. The reaction was initiated by the addition of 20 μl enzyme (final concentration 2.5 nM for wildtype αE7 and 4 nM for Gly137Asp αE7). Product formation was monitored for four minutes at room temperature using an Epoch microplate spectrophotometer (BioTek) and the initial rates of ester hydrolysis were determined by linear regression using GraphPad Prism. The Michalis constant was determined by fitting the initial rates to the Michalis-Menton equation (FIG. 10).
Enzyme inhibition with the boronic acid compounds was determined by assaying the initial rate of 4-nitrophenol butyrate hydrolysis in the presence of either neat DMSO or the boronic acid compounds in DMSO. Compounds were prepared by serially diluting 1-in-3 an initial 10 mM stock to achieve concentrations from 10 mM to 2 nM. Reactions were prepared by pipetting 178 μl assay buffer supplemented with substrate to a final concentration equal to the KM of the enzyme (15 μM for wildtype αE7 and 250 μM for Gly137Asp αE7) into wells of a 96-well plate. […]

wildtype LcαE7 = molecular target: T2, wildtype LcαE7 (Lucilia cuprina, UniProt Q25252); experiment: Enzyme inhibition assay with 4-nitrophenol butyrate, wild-type; type: biochemical
T2 sequence (Q25252 1-570): T1 sequence (Q25252 1-570)
Description: as §1, §2
Enzyme inhibition with the boronic acid compounds was determined by assaying the initial rate of 4-nitrophenol butyrate hydrolysis in the presence of either neat DMSO or the boronic acid compounds in DMSO. Compounds were prepared by serially diluting 1-in-3 an initial 10 mM stock to achieve concentrations from 10 mM to 2 nM. Reactions were prepared by pipetting 178 μl assay buffer supplemented with substrate to a final concentration equal to the KM of the enzyme (15 μM for wildtype αE7 and 250 μM for Gly137Asp αE7) into wells of a 96-well plate. 2 μl neat DMSO or 2 μl serially diluted inhibitor (final concentrations of 100 μM to 20 pM) were added to the wells. The reaction was initiated by the addition of 20 μl enzyme (final concentration 0.5 nM for wildtype αE7 and 10 nM for Glyl37Asp αE7). Product formation was monitored for four minutes at room temperature and the initial rates of ester hydrolysis were determined by linear regression. To determine the concentration of boronic acid compounds required to inhibit 50% of esterase activity (IC50), a four-parameter sigmoidal dose-response curve was fitted to percentage inhibition using GraphPad Prism (FIGS. 7 and 8). Ki values were determined using the Cheng-Prusoff equation assuming competitive inhibition (Yung-Chi, C. & Prusoff W. H. Relationship between the inhibition constant (KI) and the concentration of inhibitor which causes 50 percent inhibition (150) of an enzymatic reaction. Biochem. Pharmacol. 22, 3099-3108 (1973)).

| SMILES | IC50 [1] [nM] | Ki (wildtype LcαE7) [nM] | Ki (wildtype LcαE7; Cheng-Prusoff from dose-response, 4-nitrophenol butyrate, read-out: Ki wildtype LcαE7) [nM] |
| --- | --- | --- | --- |
| OB(O)c1cc(Br)cc2c1OCC2 [Compound 3.5] | 7.2 | 3.4 | – |
| OB(O)c1cc(Br)cc(OC(F)(F)F)c1 [Compound 3.8] | 4.2 | 2 | – |
| OB(O)c1cc(Br)cc(N2CCCC2)c1 [Compound 3] | 0.52 | 0.25 | – |
| O=C(c1cc(Cl)cc(B(O)O)c1)N1CCOCC1 [Compound 3.11] | 12 | 5.8 | – |
| OB(O)c1ccc2ccccc2c1 [Compound 4] | 15 | 7.2 | – |
| CC(C)(C)Oc1ccc(B(O)O)cc1Br [Compound 3.12] | 25 | 12 | – |
| OB(O)c1cc(Br)cc(OCc2ccccc2)c1 [Compound 3.9] | 0.91 | 0.44 | – |
| OB(O)c1cc(Br)cc(N2CCOCC2)c1 [Compound 3.1] | 1.5 | – | 0.7 |
| Cc1ccc(B(O)O)cc1OCc1ccccc1 [Compound 2] | 6.1 | 2.9 | – |
| Cc1ccc(B(O)O)cc1Br [Compound 1] | 25 | 12 | – |
| CN1CCN(c2cc(Br)cc(B(O)O)c2)CC1 [Compound 3.4] | 7.8 | 3.8 | – |
| OB(O)c1cc(Br)cc(Oc2ccccc2)c1 [Compound 3.10, 3-Bromo-5-phenoxyfenylboronic acid] | 0.91 | 0.44 | – |
| OB(O)c1ccc(OCc2ccccc2F)c(Cl)c1 [Compound 5, 3-Chloro-4(2′-fluorobenzyloxy) phenylboronic acid] | 22.4 | 11 | – |
| OB(O)c1cc(Br)cc(N2CCCCC2)c1 [Compound 3.3] | 0.97 | 0.47 | – |
| OB(O)c1ccccc1 [PBA, phenylboronic acid, reference compound] | 430 | 210 | – |
| CC(C)Oc1cc(Br)cc(B(O)O)c1 [Compound 3.7, 3-Bromo-5-isopropoxyphenylboronic acid] | 0.62 | 0.3 | – |
| OB(O)c1cc(Br)c2ccccc2c1F [Compound 3.6] | 13 | 6 | – |
